Bounds are passed on as bounds.

The subject of series [1] is Jurkat proteomes. Briefly: In vitro competition of KY-26 labeling, gel-based chemical proteomics. The class given is binding, human. As to conditions: pretreatment 30 min, 37° C.: ATP 10-0.5 mM, KY-424 1 and 0.5 mM, then KY-26 5 μM. As for the experimental part: (§1) Briefly, Jurkat cells were grown to 80% confluency and treated with either DMSO or probe at the designated final concentration (KY-26 or XO44, 1,000× stock in serum-free media (SFM)) and incubated at 37° C. with 5% CO2 for 30 min. Cells were harvested and lysed in PBS buffer containing EDTA-free protease inhibitors. Addition of the rhodamine fluorescent tag was accomplished by CuAAC and fluorescently labeled proteins visualized by SDS-PAGE and in-gel fluorescence scanning. For KY-26 and XO44 live cell treated samples, 50 μL aliquots of proteome were used for gel experiments. […]
(§2) Cell pellets were lysed in PBS buffer (PBS+a protease inhibitor (sold under the tradename PIERCE™, Thermo Fisher Scientific, Waltham, Massachusetts, United States of America), EDTA free) by sonicating 3 times for 1 second×20% amplitude. […] Protein concentrations were measured using the Bio-Rad DC protein assay (Bio-Rad Laboratories, Hercules, California, United States of America), and fractions were diluted to a concentration of 1 mg/mL in PBS. […] 30 μL of each sample were separated by SDS-PAGE and analyzed by in-gel fluorescence scanning for the rhodamine azide tag. […]
In addition to solution reactivity, activity of KY-26 and XO44 in proteomes was compared using gel-based chemical proteomics. […] Probe-modified proteins were visualized by SDS-PAGE and in-gel fluorescence scanning. […]

Series [2] can be described thus: HPLC solution reactivity of probe with p-cresol (tyrosine mimetic). The series is classed as physicochemical. As to conditions: UV 254 nm, TMG base, 0° C., longest time point tested 90 min. As for the experimental part:
(§3) Briefly, reaction progress of KY-26 or XO44 with p-cresol or n-butylamine (16.5 μmol, 3.3 eq.) in the presence of TMG base (1,1,3,3-tetramethylguanidine, 1.1 eq) was evaluated by monitoring probe consumption and quantified based on the signal from the caffeine standard using HPLC. Synthetic peptide reactions were conducted by mixing the peptide (Ac-RLNERHYGGLTGLNK-NH2, 50 nmol, 1.0 eq.) with 1.1 eq of TMG. KY-26 (550 nmol, 11.0 eq) was added to the mixture and the reaction was kept at 37° C. until the reaction achieved at least 50% conversion.
(§4) More particularly, an acetonitrile solution of p-cresol or n-butylamine (16.5 μmol, 3.3 eq.) was mixed with 1.1 eq of TMG. KY-26 or XO44 in ACN:DMF=6:4 (5 μmol, 1.0 eq.) was added to the mixture and the reaction was kept at 0° C. The final molarity for KY-26 or XO44 is 10 mM. Aliquots (50 μl) of the reaction were taken and quenched by adding acetic acid (0.5 M final, 5.0 μmol) and caffeine standard (0.05 M final, 0.5 μmol) at ten-minute intervals for 1.5 hrs. 1.0 μL sample was injected and analyzed by reverse-phase HPLC with mobile phases A (H2O, 0.1% AcOH) and B (CH3CN, 0.1% AcOH) with a gradient of 0-15-85-100% B in 0-0.5-6.5-7 min. UV measurements taken at 254 nm. Reaction progress was evaluated by monitoring KY-26 or XO44 consumption and quantified based on the signal from the caffeine standard. […]

Series [3] deals with Jurkat cells. Put plainly: Gel-based chemical proteomics, live cell probe labeling. Further details: species or system human. As for the experimental part: as §1, with “experiments. For KY-26 lysate labeling, 49 μL aliquots of cell lysate were used for each dose and time point before adding 1 μL of 50× KY-26 stock (5 μM final) and incubated for 30 min at 37° C.” for “experiments.”
as §2

Series [4] is described as follows: HPLC solution reactivity of probe with n-butylamine (lysine mimetic). The series is classed as physicochemical. As to conditions: TMG base, 0° C., KY-26 compared with p-cresol. As for the experimental part: as §3, §4
Series [5] deals with recombinant human CDK2 (Homo sapiens, UniProt P24941). Briefly: Competition of KY-26 ABP labeling of recombinant CDK2 in HEK293T lysates. The series is classed as binding. As to conditions: then 2.5 μM KY-26 30 minutes. As for the experimental part:
Gateway cloning was performed to generate recombinant human CDK2 (containing a FLAG tag) overexpression plasmid (see FIG. 11) and recombinant human CDK2 was overexpressed in HEK293T mammalian cells. KY-26 and TH211 activity-based probe (ABP) labeling of the recombinant human CDK2 was performed. Briefly, recombinant human CDK2 overexpressed HEK293T lysates were incubated […] with various concentrations of TH211 (a broad-spectrum kinase ABP) or KY-26 (a targeted covalent kinase ABP) for 30- and 60-minutes. Western blots confirmed CDK2 overexpression with rabbit anti-FLAG and goat anti-rabbit 650 antibodies for samples incubated with KY-26 or TH211 probes.
Recombinant human CDK2 overexpressed HEK293T lysates were incubated with KY-424 (1 μM-10 μM) or free ATP (1 μM-10 μM) for 30 minutes at 37° C. Subsequently, samples were incubated with 2.5 μM KY-26 for 30 minutes at 37° C. […] Based on this finding, the study was performed using additional concentrations of KY-424 ([…]) or free ATP (400 μM-10 mM) for 30 minutes at 37° C. Again, samples were then incubated with 2.5 μM KY-26 for 30 minutes at 37° C. […] Lysates from 24- (KY-424 competition) and 48-hour transfections (ATP competition) were used.

In the case of `Nc1ncnc2c1ncn2[C@@H]1O[C@H](COP(=O)(O)OP(=O)(O)OP(=O)(O)O)[C@@H](O)[C@H]1O` [ATP, adenosine triphosphate, reference compound], the “blockade of KY-26 labeling of proteomes” value in series [1] is given as “concentration-dependent blockade”.

Consider `C#CCNC(=O)c1cc(Nc2cc(C3CC3)[nH]n2)nc(N2CCN(C(=O)c3ccc(S(=O)(=O)n4cnc(-c5ccccc5)n4)cc3)CC2)n1` [KY-26, 6-((5-cyclopropyl-1H-pyrazol-3-yl)amino)-2-(4-(4-((3-phenyl-1H-1,2,4-triazol-1-yl)sulfonyl)benzoyl)piperazin-1-yl)-N-(prop-2-yn-1-yl)pyrimidine-4-carboxamide], for which the “time to near-complete depletion of probe in reaction with p-cresol” value in series [2] is not above 20 min. For the same molecule, in series [3] (2.5-25 μM, 15-120 min), the “probe labeling in live cells, dependence on concentration and time” value was “concentration- and time-dependent probe labeling”. For the same molecule, the “proteome reactivity, in-gel fluorescence intensity compared with XO44” value in series [3] (live Jurkat cells, 5 μM, 30 min, 37° C.) is on record as “substantially increased reactivity”. In addition, the “reaction of probe with n-butylamine” value in series [4] is listed as “reduced activity”.

With `CCCNC(=O)c1cc(Nc2cc(C3CC3)[nH]n2)nc(N2CCN(C(=O)c3ccc(S(=O)(=O)n4cnc(-c5ccccc5)n4)cc3)CC2)n1` [KY-424, 6-((5-cyclopropyl-1H-pyrazol-3-yl)amino)-2-(4-(4-((3-phenyl-1H-1,2,4-triazol-1-yl)sulfonyl)benzoyl)piperazin-1-yl)-N-propylpyrimidine-4-carboxamide], the “blockade of KY-26 labeling of proteomes” value in series [1] is on record as “concentration-dependent blockade”. Moreover, the “blockade of KY-26 labeling of recombinant human CDK2” value in series [5] (40 nM KY-424, 30 minutes at 37° C., HEK293T lysates) is given as “approximately 50%”. Moreover, the “competition of KY-26 ABP labeling of recombinant human CDK2” value in series [5] (KY-424 1 μM-10 μM, 30 minutes at 37° C.) was “potently competes”.
